Test results reported in publication PMC9851200, “Multiparameter phenotypic screening for endogenous TFEB and TFE3 translocation identifies novel chemical series modulating lysosome function” (Autophagy, 2022).
Read-outs that look alike come from different tables or passages of the source.

Experiments:
SH-SY5Y cells [1] = experiment: Nuclear count from microscopy images (cellular growth and toxicity); further: reference of the scale not given here
endogenous TFE3 = experiment: TFE3 nuclear translocation, immunocytochemistry high-content imaging; assay type: cell-based
SH-SY5Y cells [2] = system: SH-SY5Y cells; further: reference of the scale not given here
endogenous TFEB = experiment: TFEB nuclear translocation, immunocytochemistry high-content imaging; assay type: cell-based
SH-SY5Y cells [3] = experiment: AK (adenylate kinase) release ToxiLight cytotoxicity assay; further: reference of the scale not given here
[4] = PKIS2 primary screening, DQ Red BSA intensity
[5] = PKIS2 primary screening, DQ Red BSA spot count

Structure (SMILES) | Nuclear Count (SH-SY5Y cells [1]; PKIS2 primary screening) | TFE3 % (endogenous TFE3; PKIS2 primary screening) [%] | DQ Intensity (SH-SY5Y cells [2]; [4]) | DQ Spot (SH-SY5Y cells [2]; [5]) | TFEB % (endogenous TFEB; PKIS2 primary screening) [%] | AK (SH-SY5Y cells [3]; PKIS2 primary screening) | DQ Intensity (SH-SY5Y cells [2]; PKIS2 primary screening) | DQ Spot (SH-SY5Y cells [2]; PKIS2 primary screening) | Nuclear Count (SH-SY5Y cells [1]; PKIS2 primary screen) | TFE3 % (endogenous TFE3; PKIS2 primary screen) [%] | DQ Intensity (SH-SY5Y cells [2]; PKIS2 primary screen, DQ Red BSA intensity) | DQ Spot (SH-SY5Y cells [2]; PKIS2 primary screen, DQ Red BSA spot count) | TFEB % (endogenous TFEB; PKIS2 primary screen) [%] | AK (SH-SY5Y cells [3]; PKIS2 primary screen)
Cl.O=S(=O)(c1cccc(F)c1)c1ccc(Nc2ncnc3cc(Br)sc23)cc1Cl [UNC10224990A] | 81.79 | 13.25 | 81.12 | 105.16 | 10.77 | 136.08 |  |  |  |  |  |  |  | 
Cc1cc(-c2ccnc(Nc3cccc(C#N)c3)n2)cc(C)c1O [GSK1440913] | 76.93 | 21.61 | 63.54 | 78.51 | 7.49 | 97.58 |  |  |  |  |  |  |  | 
CSc1nn2c(=O)cc(N3CCOCC3)nc2n1Cc1cccc(Cl)c1Cl [UNC10225435A] | 99.93 | 19.82 |  |  | 4.09 | 85.33 | 59.30 | 119.93 |  |  |  |  |  | 
O=C(Nc1n[nH]c2cc(-c3ccccc3F)ccc12)C1CC1 [SB-733371] | 133.33 | 7.51 | 129.64 | 114.49 | 4.96 | 88.17 |  |  |  |  |  |  |  | 
CC(C)c1cc(-c2ccc3c(N)n[nH]c3c2)nc(N)n1 [GSK2250882] | 92.23 | 20.48 | 90.98 | 110.65 | 3.86 | 82.41 |  |  |  |  |  |  |  | 
CC(C)(C)OC(=O)NC1CCCN(c2cc(-c3ccc4c(N)n[nH]c4c3)nc(N)n2)C1 (stereo not drawn) [GSK2286096] | 128.62 | 7.82 | 137.35 | 108.17 | 2.89 | 116.95 |  |  |  |  |  |  |  | 
O=c1cc(N2CCOCC2)nc2n(Cc3ccc(F)c(Cl)c3)ccn12 [UNC10225343A] | 115.81 | 7.68 |  |  | 4.66 | 80.61 | 102.25 | 107.68 |  |  |  |  |  | 
Cc1ccc(NC(=O)c2cccc(N3CCCCC3)c2)cc1-c1ccc(C(=O)NCC2CC2)cc1 [UNC10225021A] | 118.95 | 7.57 |  |  | 6.38 | 68.90 | 102.66 | 94.61 |  |  |  |  |  | 
COc1cccc(NC(=O)NC2CCN(c3ccnc(Nc4ccc(F)cc4)n3)C2)c1 (stereo not drawn) [GSK1379721] | 112.40 | 13.36 | 94.47 | 102.23 | 3.00 | 103.41 |  |  |  |  |  |  |  | 
CCCCCc1nc2c(N)ncnc2n1CCCCC [UNC10225389A] | 110.88 | 10.63 |  |  | 4.57 | 96.98 | 103.02 | 109.08 |  |  |  |  |  | 
COC(=O)Nc1nc2ccc(Oc3ccc(NC(=O)Nc4cc(C(F)(F)F)ccc4F)cn3)cc2[nH]1 [GW681170] | 116.32 | 18.59 | 102.17 | 112.93 | 3.10 | 96.18 |  |  |  |  |  |  |  | 
NC(=O)c1cc(-c2ccccc2)cc2c(C3CCNCC3)c[nH]c12 [UNC10225015A] | 93.78 | 15.20 |  |  | 3.89 | 102.13 | 84.06 | 101.36 |  |  |  |  |  | 
COc1ccccc1CNC(=O)c1cc(C(=O)c2ccccc2C)c[nH]1 [UNC10225294A] |  |  |  |  |  |  |  |  | 105.84 | 19.95 | 126.95 | 127.30 | 4.46 | 95.17
C[C@@H](Oc1cc(-n2cnc3ccc(-c4ccncc4)cc32)sc1C(N)=O)c1ccccc1Cl [UNC10225348A] | 41.11 | 36.52 |  |  | 10.36 | 91.16 | 133.73 | 158.98 |  |  |  |  |  | 
CC(C)c1ccc(O)cc1Nc1ccnc2ccc(C(F)(F)F)cc12 [UNC10225322A] | 91.30 | 14.84 | 103.64 | 104.80 | 7.26 | 93.97 |  |  |  |  |  |  |  | 
Cc1ccc(NC(=O)c2cccc(C#N)c2)cc1-c1ccc(C(=O)Nc2ccncc2)cc1 [UNC10225263A] | 75.93 | 18.65 |  |  | 13.51 | 76.98 | 106.14 | 106.02 |  |  |  |  |  | 
Cc1ccccc1-c1cc(-c2c[nH]nc2-c2ccccn2)ccn1 [UNC10225243A] | 90.96 | 14.74 | 62.92 | 82.05 | 4.36 | 94.72 |  |  |  |  |  |  |  | 
C[C@@H](Oc1cc(-n2cnc3cc(-c4ccncc4)ccc32)sc1C(N)=O)c1ccccc1Cl [UNC10225262A] | 39.15 | 14.34 |  |  | 9.74 | 125.08 | 208.10 | 109.28 |  |  |  |  |  | 
NS(=O)(=O)c1cccc(-c2ccc3nccc(-c4cccc(S(N)(=O)=O)c4)c3c2)c1 [UNC10225379A] | 79.09 | 17.04 | 88.37 | 88.03 | 4.73 | 131.37 |  |  |  |  |  |  |  | 
COc1ccc(S(=O)(=O)NC2CCN(c3cc(C)nc(Nc4cccc(C#N)c4)n3)CC2)cc1 [GSK1653539] | 97.37 | 12.26 | 59.46 | 82.66 | 5.30 | 67.09 |  |  |  |  |  |  |  | 
N#Cc1ccc(CCNc2nccc(-c3cccc(CN4CCNCC4)c3)n2)cc1 [GSK2137462] | 74.38 | 23.49 | 97.76 | 74.26 | 6.80 | 187.39 |  |  |  |  |  |  |  | 
Fc1ccc(-c2ncn(CCCN3CCOCC3)c2-c2cccnc2)cc1 [UNC10225320A] | 104.41 | 16.30 | 94.06 | 100.66 | 7.10 | 125.08 |  |  |  |  |  |  |  | 
COc1ccc(Nc2nccc(NCCNC(=O)Nc3ccccc3F)n2)cc1 [GSK1379901] | 49.37 | 12.56 | 112.97 | 125.52 | 13.61 | 100.88 |  |  |  |  |  |  |  | 
CN(c1ccc2c(c1)nc(NCc1ccccc1)n2C)c1ccnc(Nc2ccc(CS(C)(=O)=O)cc2)n1 [GW811603] | 118.98 | 9.93 | 108.65 | 109.65 | 7.98 | 192.03 |  |  |  |  |  |  |  | 
CN1C(=O)C(Nc2ccc(Cl)c(C(=O)O)c2)=C(c2ccc(Cl)cc2)C1=O [UNC10225406A] | 91.26 | 10.12 | 120.55 | 105.90 | 3.59 | 75.31 |  |  |  |  |  |  |  | 
O=C(Nc1cccc(-c2nn3ncccc3c2-c2ccnc(Nc3ccccc3)n2)c1)c1c(F)cccc1F [UNC10225232A] | 127.09 | 11.89 |  |  | 3.87 | 143.10 | 89.13 | 101.26 |  |  |  |  |  | 
